Experimental data: US5434171A, “Preparation of 3,4,4-trisubstituted-piperidinyl-N-alkylcarboxylates and intermediates” (priority 1993, dated 1995)
Structures can show the parent of a compound that is named as a salt.

Tests used:
[1] = Description: Alternatively, a crystalline salt of compound 19F.B. (free base) can be prepared as illustrated in Scheme 2 supra. Crystallization studies were conducted using 17 different acids with three solvents; ethyl acetate, acetone, and ethanol.
pKa determination = assay type: physicochemical; settings: 67% aq. dmf

SMILES	stability of crystalline salt of 19F.B. [1]	pKa (pKa determination)
Cl [hydrochloric]	crystalline salts stable at 25 °C	–
CC(C)COC(=O)CN [Isobutyl glycine, p-toluenesulfonic acid salt]	–	7.68
O=C(O)C[C@H](O)C(=O)O [L-malic]	crystalline salts stable at 25 °C	–
